Several values for one entry are separate records, joined by “and”; a condition that tells them apart may be missing. Identical values can stand only once.
How the values were obtained:
Type in all cases: in vivo
[1] = tested on: large crabgrass (DIGSA, Digitaria sanguinalis); experiment: Greenhouse postemergence herbicidal effect; settings: for Obs % visual injury: DIGSA
Outline: (§1)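 Greenhouse plants at the second–third true leaf received overhead sprays (187 L/ha) of herbicide mixtures containing safener and oil adjuvant. Percent control or crop injury was judged by eye 20–22 d later on a 0–100 scale.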

[2] = tested on: common sunflower (HELAN, Helianthus annuus); experiment: Greenhouse postemergence herbicidal effect
Outline: as §1

[3] = tested on: velvetleaf (ABUTH, Abutilon theophrasti); experiment: Greenhouse postemergence herbicidal effect
Outline: as §1

[4] = tested on: soybean (GLXMA, Glycine max); experiment: Greenhouse postemergence herbicidal effect
Outline: as §1

[5] = tested on: ivyleaf morningglory (IPOHE, Ipomoea hederacea); experiment: Greenhouse postemergence herbicidal effect
Outline: as §1

[6] = tested on: broad-leaf dock (RUMOB, Rumex obtusifolius); experiment: Greenhouse postemergence herbicidal effect; settings: for Obs % visual injury: RUMOB
Outline: as §1

[7] = tested on: annual ryegrass (LOLMG=Lolium multiflorum subsp. gaudini); experiment: Greenhouse postemergence herbicidal effect; settings: 10 g/ha
Outline: (§2)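 Visual rating, 0 (no injury) to 100% (complete kill), taken 20–22 d after treatment relative to solvent-sprayed controls. Pyridine carboxylate (g ae/ha) combined with ALS herbicide (g ai/ha), applied by track sprayer at 187 L/ha with 1.25% v/v oil adjuvant and cloquintocet-mexyl safener.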

[8] = tested on: barnyard grass (ECHCG, Echinochloa crus-galli); experiment: Greenhouse postemergence herbicidal effect; settings: Compound A 10 g/ha
Outline: as §1

[9] = tested on: broadleaf signalgrass (BRAPP, Brachiaria platyphylla); experiment: Greenhouse postemergence herbicidal effect; settings: Compound A 10 g/ha
Outline: as §2

maize (ZEAMX, Zea mays) = experiment: Greenhouse postemergence crop phytotoxicity; settings: Compound A 10 g/ha; safener mefenpyr-diethyl
Description: (§3) Seeds of the desired test plant species were planted in a 90:10% v/v (volume/volume) mixture of PRO-MIX® BX (Premier Tech Horticulture, Quakertown, PA, USA) and PROFILE® GREENS GRADE™ (Profile Products LLC, Buffalo Grove, IL, USA) planting mixture, which typically has a pH of 5.2 to 6.2 and an organic matter content of at least 50 percent, in plastic pots with a surface area of 103.2 square centimeters (cm^2). […] The plants were grown for 7-36 days (d) in a greenhouse with an approximate 14-hour (h) photo-period which was maintained at about 23° C. during the day and 22° C. during the night. Nutrients and water were added on a regular basis and supplemental lighting was provided with overhead metal halide 1000-Watt lamps as necessary. The plants were employed for testing when they reached the second or third true leaf stage.
(§4) Emulsifiable concentrates of each of each pyridine carboxylate herbicide (Compound A or Compound B) were prepared at 100 grams acid equivalent per liter (g ae/L). The emulsifiable concentrates also included a safener, cloquintocet-mexyl, at 120 grams active ingredient per liter (g ai/L), unless otherwise noted below. An aliquot of each emulsifiable concentrate was placed in a 25 mL glass vial and diluted with an aqueous mixture of 1.25% (v/v) ACTIROB® B esterified rapeseed oil (Bayer Crop Science, Research Triangle Park, NC, USA) or MSO® Concentrate with LECI-TECH® methylated soybean oil (Loveland Products, Loveland, CO, USA) to obtain concentrated stock solutions at the highest application rate for each herbicide, based upon a 12 milliliter (mL) application volume at a rate of 187 liters per hectare (L/ha). The concentrated stock solutions were further diluted with an aqueous mixture of 1.25% v/v ACTIROB® B or MSO® Concentrate with LECI-TECH® to obtain stock solutions at reduced application rates for each herbicide. Spray solutions of the herbicide combinations (Compound A or Compound B plus ALS herbicide) were prepared by adding weighed amounts or aliquots of the ALS herbicides to the stock solutions of Compound A or Compound B to form 12-mL spray solutions in two- or three-way combinations. […]
(§5) The treated plants and control plants were placed in a greenhouse as described above and watered by sub-irrigation to prevent wash-off of the test compounds. After 20-22 d, the condition of the test plants as compared with that of the control plants was determined visually and scored on a scale of 0 to 100 percent where 0 corresponds to no injury and 100 corresponds to complete kill.

[10] = tested on: rice (ORYSA, Oryza sativa); experiment: Greenhouse postemergence crop phytotoxicity; settings: Compound A 10 g/ha; safener mefenpyr-diethyl
Description: as §3, §4, §5

[11] = tested on: spring rape (BRSNN, Brassica napus); experiment: Greenhouse postemergence herbicidal effect
Outline: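 Injury was rated visually after 20-22 d on a 0 (none) to 100% (complete kill) scale relative to solvent-sprayed controls, with sub-irrigation to avoid wash-off. Rates were given in g ae/ha or g ai/ha depending on component.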

[12] = Compound A 10 g/ha, safener mefenpyr-diethyl

## C#CCOC(=O)c1nc(-c2ccc3cc[nH]c3c2F)c(F)c(N)c1Cl [Compound B, propargyl 4-amino-3-chloro-5-fluoro-6-(7-fluoro-1H-indol-6-yl)pyridine-2-carboxylate]
[1]; Compound B 5 g/ha
  Obs % visual injury: 50%
[1]; Compound B 10 g/ha
  Obs % visual injury: 63%
[2]; 10 g/ha
  % visual injury, Obs: 100%
[3]; 10 g/ha
  % visual injury, Obs: 68%
[4]; 10 g/ha
  % visual injury, Obs: 73%
[5]; 10 g/ha
  % visual injury, Obs: 0%
[6]; 10 g/ha
  % visual injury, Obs: 15%
[6]; Compound B 5 g/ha
  Obs % visual injury: 23%
[6]; Compound B 10 g/ha
  Obs % visual injury: 18%

## N#CCOC(=O)c1nc(-c2ccc3cc[nH]c3c2F)c(F)c(N)c1Cl [Compound A, cyanomethyl 4-amino-3-chloro-5-fluoro-6-(7-fluoro-1H-indol-6-yl)pyridine-2-carboxylate]
[1]; 10 g/ha
  % visual injury, Obs: 0%
[1]; [12]
  % visual injury, Obs: 10%
  DIGSA % visual injury Obs: 10%
[7]
  % visual injury, Obs: 3%
[2]; Compound A 10 g/ha
  % visual injury: 89%
[2]; [12]
  % visual injury, Obs: 98%
  HELAN % visual injury Obs: 98%
[3]; 10 g/ha
  % visual injury, Obs: 48%
[3]; [12]
  % visual injury, Obs: 73%
  ABUTH % visual injury Obs: 73%
[4]; [12]
  % visual injury, Obs: 95%
  GLXMA % visual injury Obs: 95%
[8]
  % visual injury Obs: 85%
[8]; safener mefenpyr-diethyl
  % visual injury, Obs: 85%
  ECHCG % visual injury Obs: 85%
[5]; Compound A 10 g/ha
  % visual injury: 25%
[5]; [12]
  % visual injury, Obs: 5%
  IPOHE % visual injury Obs: 5%
[9]
  % visual injury Obs: 68%
[6]; [12]
  % visual injury, Obs: 20%
  RUMOB % visual injury Obs: 20%
Maize (ZEAMX, Zea mays)
  % visual injury, Obs: 5%
  ZEAMX % visual injury Obs: 5%
[10]
  % visual injury, Obs: 5%
  ORYSA % visual injury Obs: 5%
[11]; 10 g/ha
  % visual injury, Obs: 73% and 70% and 60%
[11]; BRSNN, Compound A 10 g/ha
  % visual injury, Obs: 60%
  Obs % visual injury: 55%
[11]; BRSNN, Compound A 10 g/ha (Table 65)
  Obs % visual injury: 55%
[11]; Compound A 10 g/ha
  % visual injury: 65%
  % visual injury Obs: 60%
  % visual injury, Obs: 55%
[11]; Compound A 10 g/ha (Examples 62-63)
  BRSNN % visual injury Obs: 55%
[11]; [12]
  % visual injury, Obs: 78%
  BRSNN % visual injury Obs: 78%

Reference: patent publication US12285012B2, “Compositions comprising pyridine carboxylate herbicides with acetolactate synthase (ALS) inhibitor herbicides” (Corteva Agriscience LLC, priority 2018, dated 2025)
